Patent US20070248646A1, “Use of azurocidin inhibitors in prevention and treatment of ocular vascular leakage” (priority 2006, published 2007)

Legend:
[1] = tested on: VEGF-induced blood retinal barrier breakdown; assay: VEGF-induced blood retinal barrier breakdown (Evans Blue); format: in vivo, Brown Norway rats
Experimental: This study employed Brown Norway rats, AZ (1 μg, 10 μg, 20 μg), PBS, aprotinin, VEGF164, and polyclonal anti-AZ antibody (1 μg). Briefly, Brown Norway rats received intravitreal injections of AZ (1 μg, 10 μg and 20 μg) in one eye and PBS in the contralateral eye. BRB breakdown was quantified using the Evans Blue (EB) technique at 1 hour, 3 hours, and 24 hours after intravitreal injection of AZ or PBS. To assess whether AZ induced retinal leukostasis, firm leukocyte adhesion was quantified at 3 hours and 24 hours post AZ injection (10 μg) using the ex vivo conconavalin leukostasis assay. To block AZ, rats were treated with a single intravenous injection of aprotinin (30,000KIU), prior to the intravitreal injections. To investigate whether AZ was involved in VEGF-induced BRB breakdown, rats received intravitreal injections of 50 ng recombinant mouse VEGF164 in one eye and PBS in the other eye and were treated intravenously with aprotinin (50,000KIU every eight hours) or polyclonal anti-AZ antibody (1 μg). BRB breakdown and retinal leukostasis were quantified 24 hours after VEGF injection.
Rats received intravitreous injections of 5 μl of sterile phosphate-buffered saline (PBS) containing 50 ng VEGF164 (R&D Systems, Minneapolis, Minn.) in one eye and 5 μl of sterile phosphate-buffered saline (PBS) in the contralateral eye. The retinas were analyzed for leakage 24 hours after VEGF injection.
In a second group, the rats were additionally treated intravenously with aprotinin (Trasylol®, Bayer Pharmaceuticals). 50,000KIU of aprotinin (5 ml of Trasylol®) was administered intravenously through the tail vein 1 hour before, as well as 8 hours and 16 hours after, the intravitreal injection of VEGF. The retinas were analyzed 24 hours after VEGF administration.
In a third group, rats were treated with intravitreous injections of 1 μg of goat anti-human azurocidin polyclonal antibody (5 μl of a 200 μg/ml antibody solution, Santa Cruz biotechnology) or control goat isotype IgG (R&D system) in the VEGF injected eye 6 hours after VEGF administration.
Retinal vascular permeability was quantified as previously described (Qaum et al. (2002) supra, Xu et al. (2001) INVEST. OPHTHALMOL. VIS. SCI. 42; 789-94). After the animals were deeply anesthetized, Evans blue dye (Sigma) dissolved in normal saline (30 mg/ml) was injected through the tail vein over 10 seconds at a dosage of 45 mg/kg. Blood samples were obtained from the left ventricle, just before perfusion at 2 hours, to obtain the time-average Evans blue dye plasma concentration. These blood samples were centrifuged at 12,000 rpm for 15 minutes and diluted to 1/10,000th of their initial concentration in formamide (Sigma). The background-subtracted absorbance was determined by measuring each sample at 620 nm (the absorbance maximum for Evans blue dye in formamide) and 740 nm (the absorbance minimum) with a spectrophotometer. The concentration of dye in the plasma was calculated from a standard curve of Evans blue dye in formamide. After the dye had circulated for 2 hours, the chest cavity was opened, and the rats were perfused through the left ventricle with 1% paraformaldehyde in citrate buffer (0.05 M, pH 3.5) at a physiological pressure of 120 mm Hg. The retinas were then carefully dissected under an operating microscope. After measurement of the retinal weight, Evans blue dye was extracted by incubating each retina in 0.180 ml of formamide for 18 hours at 70° C. The extract was ultracentrifuged at a speed of 14,000 rpm for 60 minutes at 25° C. Sixty microliters of the supernatant was used for spectrophotometric measurement at 620 nm and 740 nm. The background-subtracted absorbance was determined by measuring each sample at 620 nm (the absorbance maximum for Evans blue dye in formamide) and 740 nm (the absorbance minimum). The concentration of dye in the extracts was calculated from a standard curve of Evans blue dye in formamide. […]

[2] = tested on: choroidal neovascular leakage; assay: Laser-induced CNV leakage by fluorescein angiography (model of AMD); format: in vivo, mice; conditions: 50,000KIU/day, i.p.
Description: Laser-induced CNV is a VEGF-dependent model for exudative changes that occur in AMD. In this model, disruption of an animal's Bruch's membrane by laser results in formation of CNV lesions. In these lesions, neovascular capillaries originate within the choroid and extend through the disrupted Bruch's membrane into the outer nuclear layer of the retina. The formation of these leaky capillaries is mainly attributed to changes in the level of angiogenic growth factors such as VEGF.
To perform the procedure, the pupils were dilated with 1-2 drops of 1% tropicamide. Subsequently, 4-6 photocoagulation lesions were delivered to each eye, using a Coherent argon laser (532 nm wavelength, 50 μm spot size, 0.1 s duration, 120-160 mW; model 920; Coherent, Palo Alto, Calif.) between the retinal vessels in a peripapillary distribution in each fundus, using a slit lamp delivery system and a cover glass as a contact lens. The genesis of a bubble at the time of laser treatment confirmed the rupture of the Bruch's membrane. […] Images were captured on a computer (using the IMAGEnet for Windows software, Topcon, Paramus, N.J.). Two masked evaluators performed the grading of the retinal images. A choroidal neovascular membrane is considered to be present if there was early hyperfluorescence followed by later leakage at the site where the laser injury is induced. […]

Question: aprotinin was tested. Which “BRB breakdown as percentage of the value in control eyes” value ([1]; 24 hours after intravitreal 50 ng VEGF) did it give?
Answer: 110%±21

Question: And the “Evans Blue retinal leakage in VEGF-injected eye” value ([1]; 24 hours after intravitreal 50 ng VEGF, PBS eye 9.6±1.4 (VEGF alone), 5.4±1.4 (with aprotinin))?
Answer: 6.2±1.5 μl plasma/g retina/h

Question: What about the “fold increase in retinal vascular leakage compared to the PBS injected eye” value ([1]; 24 hours after intravitreal 50 ng VEGF, aprotinin i.v. 50,000KIU every eight hours, antibody 1 μg intravitreal 6 hours after VEGF) of the same substance?
Answer: 1.1±0.21 fold

Question: What about the “suppression of VEGF-induced blood retinal barrier breakdown” value ([1]; 24 hours after intravitreal 50 ng VEGF, aprotinin i.v., antibody intravitreal 6 hours after VEGF) of the same substance?
Answer: 95%

Question: What about the “basal levels of retinal Evans Blue leakage” value ([1]; PBS-injected eye, i.v. aprotinin) of the same substance?
Answer: did not reduce the basal levels of retinal Evans Blue leakage

Question: And the “CNV leakage on fluorescein angiography compared to vehicle treated controls” value ([2]; day 7 post injury)?
Answer: substantially smaller

Question: What about the “CNV lesion size on fluorescein angiography” value ([2]; day 14 post injury) of the same substance?
Answer: further reduced lesion size
